Columns and labels:
[1] = test system: HT-29 human colon cancer cells; assay: In vitro biological activity assay: inhibition of TNFα/SmacM/Z_VAD FMK-induced programmed necrosis, CellTiter-Glo viability; format: cell-based; conditions: HT-29 cells, necrosis induced with TNF-α 100 ng/mL, SmacM 100 nM, Z_VAD-FMK 10 μM, overnight, cell viability by chemiluminescence
Method: In order to verify the inhibitory effect of the compounds of the present disclosure on programmed necrosis at the cellular level, a type of cells closely related to the RIP1 pathway, namely HT-29 human colon cancer cells, were selected. The used activation mode is a combination of tumor necrosis factor (TNFα), cysteine aspartate activator mimic (SmacM) and pan-caspase inhibitor Z_VAD FMK, and the cell viability was calculated by detecting chemiluminescence values, thus obtaining the biological activity of the compound inhibiting the programmed necrosis of cells.
Cell line: HT-29 (ATCC® HTB-38™)
• 2.1. The Growth Status of HT-29 Cells was Regularly Checked to Ensure their Normal Growth. • 2.2. McCOY's 5A culture medium containing 10% FBS was preheated in a 37° C. water bath for 30 minutes. When the culture medium was ready for use, the cell passage and inoculation was performed in a Class II safety cabinet with aseptic technique. • 2.3. In a T75 culture flask, when the growth density of cells reached the abundance of approximately 80%, the culture medium was aspirated and cells were washed twice with pre-warmed PBS. • 2.4. 2-3 mL of trypsin (Gibco, catalog number 25200-056) was added and the T75 culture flask was transferred to a 37° C. incubator. • 2.5. After 3-5 minutes, the side of the culture flask was tapped and examined under a microscope for detachment of the cells to the flask. If necessary, the cells were placed back into the incubator to wait for another 5-10 minutes until 85% of the cells were detached from each other. • 2.6. 6-9 mL of complete cell culture medium was quickly added to terminate the trypsin reaction, and then the cells were transferred to a sterile 15 mL centrifuge tube. The cells were pelleted by centrifugation at 300 g for 5-7 minutes in a centrifuge, and then the supernatant was decanted. • 2.7. The cells were resuspended in 10 mL of fresh cell culture medium and the cells were counted by using a hemocytometer. • 2.8. 3,000 cells contained in 100 μL were inoculated into each well of a sterile 96-well cell culture plate (Corning 3903) and cultured overnight at 37° C. under 5% CO2.
• 3.1. All batches of compounds were dissolved in dimethyl sulfoxide (DMSO) to prepare a 20 mM stock. • 3.2. 3 μL of 20 mM stock of each compound was added to 27 μL of DMSO and mixed thoroughly, and then diluted at a dilution ratio of […] (20 μL compound+40 μL DMSO) until the 10-12 points ended. After the compounds were diluted, they were set aside for use. • 3.3. The cell culture plate was taken out from the incubator, washed once with PBS, and replaced with a fresh culture medium free of serum. A mixture of TNF-α (100 ng/mL), SMAC mimic (SmacM, 100 nM) and Z_VAD-FMK (10 μM) was added to induce the programmed necrosis in HT-29 cells. • 3.4. The compound dilution plate was prepared, 0.5 μL of the diluted compound was added to the corresponding 96-well plate, and mixed gently. Two duplicate wells were prepared for each compound. • 3.5. The treated 96-well plate to which the compounds had been added was placed back into the 37° C. incubator containing 5% CO2 and incubated overnight.
The luminescence cell viability detection kit was used to calculate the activity of the compound by measuring the ATP content in viable cells. • 4.1. The CellTiter-Glo® buffer and dry powdered substrate were equilibrated to room temperature before use. • 4.2. The CellTiter-Glo® substrate was resuspended with Cell Titer-Glo® buffer, then homogeneously mixed by gently vortexing. • 4.3. The cell culture plate was taken out and equilibrated at room temperature for 10 minutes (usually not suitable if more than 30 minutes). • 4.4. 20 μL of enzyme/substrate mixture was added into the 96-well assay plate with a multi-channel pipettor. • 4.5. The 96-well assay plate was placed on a shaker and the content was mixed for 2-3 minutes to promote the cell lysis. • 4.6. […]

[2] = Rapid brain distribution assay (LC-MS/MS, brain tissue/plasma ratio); format: in vivo; conditions: mouse, ip, CD1 mice, intraperitoneal, grouped compounds, brain tissue and plasma taken one hour after administration, read-out: B/P
Method: The contents in plasma and tissue samples were measured by LC-MS/MS to obtain the ratio of the concentration in the brain tissue sample to that in the plasma sample, and compounds with blood-brain penetration could be quickly screened.
• 3.1. A group of compounds (usually 3-4 compounds, the molecular weight difference between each other was greater than 5), weighing 1-2 mg of each compound, were added into the same 4 mL weighing bottle. • 3.2. A mixed solvent of 10% DMSO+20% polyethylene glycol-15-hydroxystearate+70% H2O was used to prepare each group to a volume of 1.5 mL-2 mL. • 3.3. The mixture was ultrasonically vortexed until a homogeneous solution was obtained for intraperitioneal administration.
• 4.1. Three CD1 mice were prepared for each group and weighed. • 4.2. The administration volume was 10 mL/kg, and the mice were administered intraperitoneally. • 4.3. Timing was started after administration, and plasma samples and brain tissue samples were taken one hour later. • 4.4. The brain tissue sample was weighed, and then 4 fold volume of physiological saline was added. The resulting mixture was homogenized, and frozen at −20° C. until analysis.
• 5.1. The exact molecular weight of a compound was found from the compound information table. • 5.2. The corresponding parent ions and fragment ions were found, and the mass spectrometry condition and the liquid phase (chromatography) method were optimized to find the appropriate condition and method.
• 6.1. Plasma sample (5-fold dilution): 10 μL of the plasma sample was taken, and 40 μL of the blank plasma sample and 50 μL of the corresponding blank tissue sample were added. • 6.2 Tissue sample processing: 50 μL of the tissue sample (brain, kidney, liver and the like) was taken, and 50 μL of the blank plasma sample was added. • 6.3. The above tissue sample and the diluted plasma sample were taken, and 500 μL of the internal standard solution was added to precipitate the protein. The resulting mixture was vortexed for 2 minutes, stored by freezing at −20° C. for 1 hour and centrifuged at 3800 rpm for 15 minutes at 4° C. The supernatant was taken, 5-fold diluted with 50% MeOH, and then vortexed for 2 minutes, ready for measurement.
The sample was detected by using an appropriate LC-MS/MS method.
Distribution ratio of tissue/plasma=(peak area of compound in tissue/peak area of internal standard)/(peak area of compound in plasma/peak area of internal standard)

[3] = in vivo; cited from earlier work
mouse L929 cells = conditions: read-out: IC50, blocking programmed necrosis; cited from earlier work
human U937 cells = conditions: read-out: IC50, blocking programmed necrosis; cited from earlier work
TNF-induced shock model = conditions: mice; cited from earlier work

Kp at 1 h [2] | SMILES | EC50 [1] [nM] | other results
1.2 | Nc1ncc(C#Cc2cncc(-n3nc4c(n3)[C@@H](c3ccccc3)CC4)c2)cn1 [Compound 56, (R)-5-((5-(4-phenyl-5,6-dihydrocyclopenta[d][1,2,3]triazol-2 (4H)-yl)pyridin-3-yl)ethynyl)pyrimidin-2-amine] | > 1000 | –
2.16 | Cn1c(-n2nc3c(n2)C(c2ccccc2)CC3)cc(C#Cc2cnc(N)nc2)cc1=O (stereo not shown) [Compound 57, 4-((2-aminopyrimidin-5-yl)ethynyl)-1-methyl-6-(4-phenyl-5,6-dihydrocyclopenta[d][1,2,3]triazol-2 (4H)-yl)pyridine-2 (1H)-one] | ≤ 100 | –
2.93 | Cc1ncc(C#Cc2cnc(N)nc2)cc1-n1nc2c(n1)C(c1ccccc1)CC2 (stereo not shown) [Compound 58, 5-((6-methyl-5-(4-phenyl-5,6-dihydrocyclopenta[d][1,2,3]triazol-2 (4H)-yl)pyridin-3-yl)ethynyl)pyrimidin-2-amine] | ≤ 100 | –
1.17 | Nc1ncc(CCc2cncc(-n3cc4c(n3)[C@H](c3ccccc3)CC4)c2)cn1 [Compound 61, (S)-5-(2-(5-(6-phenyl-5,6-dihydrocyclopenta[c]pyrazol-2 (4H)-yl)pyridin-3-yl)ethyl)pyrimidin-2-amine] | ≤ 100 | –
0.388 | Cn1c(-n2nc3c(n2)C(c2cccnc2)CC3)cc(C#Cc2cnc(N)nc2)cc1=O (stereo not shown) [Compound 62] | ≤ 100 | –
3.77 | Nc1ncc(C#Cc2cncc(-n3nc4c(n3)C(c3cc(F)cc(F)c3)CC4)c2)cn1 (stereo not shown) [Compound 63, 5-((5-(4-(3,5-difluorophenyl)-5,6-dihydrocyclopenta[d][1,2,3]triazol-2 (4H)-yl)pyridin-3-yl)ethynyl)pyrimidin-2-amine] | ≤ 100 | –
1.12 | Cn1c(-n2nc3c(n2)C(C2CCCCC2)CC3)cc(C#Cc2cnc(N)nc2)cc1=O (stereo not shown) [Compound 65, 4-((2-aminopyrimidin-5-yl)ethynyl)-6-(4-cyclohexyl-5,6-dihydrocyclopenta[d][1,2,3]triazol-2 (4H)-yl)-1-methylpyridin-2 (1H)-one] | ≤ 100 | –
3.62 | Cc1ncc(C#Cc2cn[nH]c2)cc1-n1nc2c(n1)C(c1ccccc1)CC2 (stereo not shown) [Compound 66, 2-(5-((1H-pyrazole-4-yl)ethynyl)-2-methylpyridin-3-yl)-4-phenyl-2,4,5,6-tetrahydrocyclopenta[d][1,2,3]triazole] | ≤ 100 | –

The next lines start with the molecule.

SMILES | Kp at 1 h [2] | EC50 [1] [nM] | other results
Cc1ncc(C#Cc2cnc(N)nc2)cc1-n1cc2c(n1)C(c1ccccc1)CC2 (stereo not shown) [Compound 42, 5-((6-methyl-5-(6-phenyl-5,6-dihydrocyclopenta[c]pyrazol-2 (4H)-yl)pyridin-3-yl)ethynyl)pyrimidin-2-amine] | 2.45 | ≤ 100 | –
Cn1cc(C#Cc2cnc(N)nc2)cc(-n2cc3c(n2)C(c2ccccc2)CC3)c1=O (stereo not shown) [Compound 44] | 3.25 | ≤ 100 | –
Nc1ncc(C#Cc2cncc(-n3cc4c(n3)C(c3cccc(F)c3)CC4)c2)cn1 (stereo not shown) [Compound 45] | 2.28 | ≤ 100 | –
Nc1ncc(C#Cc2cncc(-n3cc4c(n3)C(c3ccccc3)OC4)c2)cn1 (stereo not shown) [Compound 51, 5-(5-(6-phenyl-4H-furo[3,4-c]pyrazol-2 (6H)-yl)pyridin-3-ethynyl)pyrimidin-2-amine] | 2.46 | ≤ 100 | –
Nc1ncc(C#Cc2cncc(-n3nc4n(c3=O)CCC4c3ccccc3)c2)cn1 (stereo not shown) [Compound 52, 2-(5-((2-aminopyrimidin-5-yl)ethynyl)pyridin-3-yl)-7-phenyl-2,5,6,7-tetrahydro-3H-pyrrolo[2,1-c][1,2,4]triazole-3-one] | 1.1 | ≤ 100 | –
Nc1ncc(C#Cc2cncc(-n3nc4c(n3)C(c3ccccc3)CC4)c2)cn1 (stereo not shown) [Compound 54, 5-((5-(4-phenyl-5,6-dihydrocyclopenta[d][1,2,3]triazol-2 (4H)-yl)pyridine-3-yl)ethynyl)pyrimidin-2-amine] | 1.44 | ≤ 100 | –
Nc1ncc(C#Cc2cncc(-n3nc4c(n3)[C@H](c3ccccc3)CC4)c2)cn1 [Compound 55, (S)-5-((5-(4-phenyl-5,6-dihydrocyclopenta[d][1,2,3]triazol-2 (4H)-yl)pyridin-3-yl)ethynyl)pyrimidin-2-amine] | 2.61 | ≤ 100 | –
CN1C(=O)[C@@H](NC(=O)c2nnc(Cc3ccccc3)[nH]2)COc2ccccc21 [GSK2982772] | – | – | brain tissue distribution [3]: low brain tissue distribution
CC(C)(C)C(=O)N1N=CC[C@H]1c1ccccc1 [GSK′963] | – | – | IC50 (mouse L929 cells): 1 nM; IC50 (human U937 cells): 4 nM; effect on hypothermia (TNF-induced shock model): effectively inhibit hypothermia

— patent US20240391900A1, “RIP1 KINASE INHIBITOR AND USE THEREOF” (SIRONAX (BEIJING) CO., LTD., priority 2021, published 2024)
